# Measured values published in ChEMBL document CHEMBL1134950, “Retro-binding thrombin active site inhibitors: identification of an orally active inhibitor of thrombin catalytic activity” (Bioorg Med Chem Lett, 2002).
# What was measured:
# Mus musculus [1] = assay: Efficacy required to inhibit thrombin was determined after 1 hr of intravenous administration in the mouse thrombin challenge model; type: functional
# Coagulation factor X = Coagulation factor X (Homo sapiens, UniProt P00742); assay: Concentration required to inhibit Coagulation factor X was determined
# Chain of Coagulation factor X (P00742 41-179 limits assumed): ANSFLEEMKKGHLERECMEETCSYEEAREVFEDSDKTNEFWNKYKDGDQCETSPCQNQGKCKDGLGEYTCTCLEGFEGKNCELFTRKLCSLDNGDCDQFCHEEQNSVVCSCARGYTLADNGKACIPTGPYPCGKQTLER
# Chain of Coagulation factor X (P00742 235-488 limits assumed): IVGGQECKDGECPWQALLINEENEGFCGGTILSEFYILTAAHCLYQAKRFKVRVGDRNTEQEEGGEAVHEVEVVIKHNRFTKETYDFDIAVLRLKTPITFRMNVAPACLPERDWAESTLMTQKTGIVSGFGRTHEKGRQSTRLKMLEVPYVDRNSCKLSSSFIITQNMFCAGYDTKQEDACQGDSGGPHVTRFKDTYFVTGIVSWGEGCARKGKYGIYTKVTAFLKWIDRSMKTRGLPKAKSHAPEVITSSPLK
# Mus musculus [2] = assay: Efficacy required to inhibit thrombin was determined after 10 min of intravenous administration in the mouse thrombin challenge model; type: functional
# Mus musculus [3] = assay: Efficacy required to inhibit thrombin was determined after 1 hr of oral administration in the mouse thrombin challenge model; type: functional
# Prothrombin [4] = target: T1, Prothrombin (Homo sapiens, UniProt P00734); assay: Concentration required to inhibit thrombin was determined
# Plasminogen = Plasminogen (Homo sapiens, UniProt P00747); assay: Concentration required to inhibit Plasmin was determined
# Chain of Plasminogen (P00747 97-580 limits assumed): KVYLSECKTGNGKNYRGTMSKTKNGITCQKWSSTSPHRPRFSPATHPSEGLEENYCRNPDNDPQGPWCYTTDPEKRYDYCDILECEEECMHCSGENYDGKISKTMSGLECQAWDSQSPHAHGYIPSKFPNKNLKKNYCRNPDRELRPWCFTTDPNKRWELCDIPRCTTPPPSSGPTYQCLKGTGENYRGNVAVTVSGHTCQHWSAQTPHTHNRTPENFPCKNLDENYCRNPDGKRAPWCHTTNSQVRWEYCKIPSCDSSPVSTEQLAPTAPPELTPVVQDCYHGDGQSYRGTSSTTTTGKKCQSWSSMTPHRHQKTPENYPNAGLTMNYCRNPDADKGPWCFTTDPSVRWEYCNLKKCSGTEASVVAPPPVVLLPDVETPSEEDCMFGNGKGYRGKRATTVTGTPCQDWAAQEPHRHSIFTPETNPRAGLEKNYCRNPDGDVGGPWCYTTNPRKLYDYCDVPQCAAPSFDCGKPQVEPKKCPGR
# Chain of Plasminogen (P00747 581-810 limits assumed): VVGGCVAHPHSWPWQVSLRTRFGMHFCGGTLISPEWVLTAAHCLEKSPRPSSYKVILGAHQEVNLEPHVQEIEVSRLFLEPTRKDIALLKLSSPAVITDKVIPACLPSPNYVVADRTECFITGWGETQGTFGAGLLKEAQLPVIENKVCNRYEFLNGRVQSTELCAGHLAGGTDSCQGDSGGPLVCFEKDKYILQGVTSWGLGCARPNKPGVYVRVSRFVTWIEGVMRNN
# [5] = target: T2, Tissue-type plasminogen activator (Homo sapiens, UniProt P00750); assay: Concentration required to inhibit tissue-type plasminogen activator (t-PA) was determined
# T2 sequence (P00750 whole entry): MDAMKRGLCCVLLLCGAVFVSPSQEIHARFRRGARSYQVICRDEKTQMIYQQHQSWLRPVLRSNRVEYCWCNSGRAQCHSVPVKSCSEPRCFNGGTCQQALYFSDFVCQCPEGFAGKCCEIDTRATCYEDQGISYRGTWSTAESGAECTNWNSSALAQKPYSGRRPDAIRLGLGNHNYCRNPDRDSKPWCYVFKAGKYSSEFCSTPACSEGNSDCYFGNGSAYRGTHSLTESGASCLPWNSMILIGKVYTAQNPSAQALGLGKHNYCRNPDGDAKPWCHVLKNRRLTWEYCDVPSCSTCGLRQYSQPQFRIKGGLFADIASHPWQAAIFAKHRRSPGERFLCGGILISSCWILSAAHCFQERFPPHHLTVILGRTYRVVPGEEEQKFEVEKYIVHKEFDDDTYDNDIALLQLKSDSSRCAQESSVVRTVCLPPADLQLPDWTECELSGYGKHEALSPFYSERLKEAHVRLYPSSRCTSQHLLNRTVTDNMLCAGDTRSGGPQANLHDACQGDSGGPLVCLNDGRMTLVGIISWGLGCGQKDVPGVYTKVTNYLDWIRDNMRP
# Serine protease 1 = target: T3, Serine protease 1 (Bos taurus, UniProt P00760); assay: Concentration required to inhibit Trypsin was determined
# T3 sequence (P00760 whole entry): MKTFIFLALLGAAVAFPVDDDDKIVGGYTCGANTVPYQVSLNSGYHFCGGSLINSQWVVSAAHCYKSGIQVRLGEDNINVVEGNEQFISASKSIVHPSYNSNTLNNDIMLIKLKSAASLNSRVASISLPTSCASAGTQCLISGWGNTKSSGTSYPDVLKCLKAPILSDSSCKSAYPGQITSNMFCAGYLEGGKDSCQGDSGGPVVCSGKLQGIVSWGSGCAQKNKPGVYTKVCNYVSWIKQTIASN
# Prothrombin [6] = target: T1, Prothrombin; assay: Concentration required to inhibit Human alpha-thrombin was determined
# [7] = target: T2, Tissue-type plasminogen activator; assay: Concentration required to inhibit Tissue-type plasminogen activator (t-PA) was determined
# Prothrombin [8] = target: T1, Prothrombin; assay: Inhibitory constant of thrombin catalytic activity was determined
smiles,measurement,setting,value
CC(O)[C@@H](C(=O)N[C@H](C)c1ccccc1)N(C)C(=O)[C@H](Cc1ccc([N+](=O)[O-])cc1)NC(=O)CCCN=C(N)N (some centres not stated),ED50,Mus musculus [1],2.2 mg/kg
same,IC50,Coagulation factor X,4.6 µM
same,ED50,Mus musculus [2],0.21 mg/kg
same,ED50,Mus musculus [3],23 mg/kg
same,IC50,Prothrombin [4],0.008 µM
same,IC50,Plasminogen,0.23 µM
same,IC50,[5],0.7 µM
same,IC50,Serine protease 1,0.008 µM
CC(O)[C@H](NC(=O)[C@H](Cc1ccc([N+](=O)[O-])cc1)NC(=O)CCCN=C(N)N)C(=O)N[C@H](CO)c1ccccc1 (some centres not stated),IC50,Prothrombin [6],0.019 µM
CC(O)[C@H](NC(=O)[C@H](Cc1ccc([N+](=O)[O-])cc1)NC(=O)CCCN=C(N)N)C(N)=O (some centres not stated),IC50,Prothrombin [6],230 µM
COC(=O)[C@@H](NC(=O)[C@@H](NC(=O)[C@H](Cc1ccc([N+](=O)[O-])cc1)NC(=O)CCCN=C(N)N)C(C)O)C1CCCCC1 (some centres not stated),IC50,Prothrombin [6],0.016 µM
CC(O)[C@H](NC(=O)[C@H](Cc1ccc([N+](=O)[O-])cc1)NC(=O)CCCN=C(N)N)C(=O)N[C@@H](C)c1ccccc1 (some centres not stated),IC50,Prothrombin [6],0.31 µM
CC(O)[C@H](NC(=O)[C@H](Cc1ccc([N+](=O)[O-])cc1)NC(=O)CCCN=C(N)N)C(=O)N[C@H](C)c1ccccc1 (some centres not stated),IC50,Prothrombin [6],0.072 µM
COC(=O)[C@@H](NC(=O)[C@@H](NC(=O)[C@H](Cc1ccc([N+](=O)[O-])cc1)NC(=O)CCCN=C(N)N)C(C)O)c1ccccc1 (some centres not stated),IC50,Prothrombin [6],0.0083 µM
CC(O)[C@H](NC(=O)[C@H](Cc1ccc([N+](=O)[O-])cc1)NC(=O)CCCN=C(N)N)C(=O)N[C@@H](C)Cc1ccccc1 (some centres not stated),IC50,Prothrombin [6],0.26 µM
CC(O)[C@H](NC(=O)[C@H](Cc1ccc([N+](=O)[O-])cc1)NC(=O)CCCN=C(N)N)C(=O)N[C@H](C(=O)O)C1CCCCC1 (some centres not stated),IC50,Prothrombin [6],0.055 µM
CC(O)[C@H](NC(=O)[C@H](Cc1ccc([N+](=O)[O-])cc1)NC(=O)CCCN=C(N)N)C(=O)N[C@H](CO)C1CCCCC1 (some centres not stated),IC50,Prothrombin [6],0.019 µM
CC(O)[C@H](NC(=O)[C@H](Cc1ccc([N+](=O)[O-])cc1)NC(=O)CCCN=C(N)N)C(=O)N[C@H](C)Cc1ccccc1 (some centres not stated),IC50,Prothrombin [6],0.043 µM
CN[C@H](Cc1ccccc1)C(=O)N1CCC[C@H]1C(=O)N[C@H](C=O)CCCNC(=N)N [EFEGATRAN],ED50,Mus musculus [1],3 mg/kg
same,IC50,Coagulation factor X,16 µM
same,IC50,[7],34 µM
same,ED50,Mus musculus [2],0.04 mg/kg
same,ED50,Mus musculus [3],44 mg/kg
same,IC50,Prothrombin [4],0.03 µM
same,IC50,Plasminogen,25 µM
same,Ki,Prothrombin [8],0.007 µM
same,IC50,Serine protease 1,0.045 µM
